pIC50: −log10 of the molar value. Active and inactive are the calls of the source. The calls are words filed in the database; no cut-off is given here.
Tests used:
CDK7/Cyclin H/MNAT1 = CDK7/Cyclin H/MNAT1 (Homo sapiens, UniProt P50613); experiment: Inhibition of CDK7/Cyclin H/MAT1 (unknown origin) preincubated for 10 mins followed by substrate addition measured for 60 to 120 mins by HTRF assay; assay type: protein-complex assay
HL-60 [1] = experiment: Induction of apoptosis in human HL-60 cells assessed as necrotic cells at 5 uM incubated for 48 hrs by annexin V-FITC/PI staining based flow cytometry (reference value: 0.26 %); assay type: functional
[2] = target: Proto-oncogene tyrosine-protein kinase receptor Ret (Homo sapiens) (UniProt P07949); experiment: Inhibition of RET (unknown origin) at 1 uM preincubated for 10 mins followed by substrate addition measured for 60 to 120 mins by HTRF assay relative to control; conditions: time 70-130 min
[3] = target: Tyrosine-protein kinase Mer (Homo sapiens) (UniProt Q12866); experiment: Inhibition of MER (unknown origin) at 1 uM preincubated for 10 mins followed by substrate addition measured for 60 to 120 mins by HTRF assay relative to control; conditions: time 70-130 min
[4] = target: Receptor tyrosine-protein kinase erbB-2 (Homo sapiens) (UniProt P04626); experiment: Inhibition of HER2 (unknown origin) at 1 uM preincubated for 10 mins followed by substrate addition measured for 60 to 120 mins by HTRF assay relative to control; conditions: time 70-130 min
[5] = target: Tyrosine-protein kinase BTK (Homo sapiens) (UniProt Q06187); experiment: Inhibition of BTK (unknown origin) at 1 uM preincubated for 10 mins followed by substrate addition measured for 60 to 120 mins by HTRF assay relative to control; conditions: time 70-130 min
[6] = target: Protein-tyrosine kinase 6 (Homo sapiens) (UniProt Q13882); experiment: Inhibition of BRK (unknown origin) at 1 uM preincubated for 10 mins followed by substrate addition measured for 60 to 120 mins by HTRF assay relative to control; conditions: time 70-130 min
[7] = target: Tyrosine-protein kinase ABL2 (Homo sapiens) (UniProt P42684); experiment: Inhibition of ABL2 (unknown origin) at 1 uM preincubated for 10 mins followed by substrate addition measured for 60 to 120 mins by HTRF assay relative to control; conditions: time 70-130 min
[8] = target: Tyrosine-protein kinase ITK/TSK (Homo sapiens) (UniProt Q08881); experiment: Inhibition of ITK (unknown origin) at 1 uM preincubated for 10 mins followed by substrate addition measured for 60 to 120 mins by HTRF assay relative to control; conditions: time 70-130 min
[9] = target: Ephrin type-B receptor 2 (Homo sapiens) (UniProt P29323); experiment: Inhibition of EPHB2 (unknown origin) at 1 uM preincubated for 10 mins followed by substrate addition measured for 60 to 120 mins by HTRF assay relative to control; conditions: time 70-130 min
[10] = target: Tyrosine-protein kinase Yes (Homo sapiens) (UniProt P07947); experiment: Inhibition of YES (unknown origin) at 1 uM preincubated for 10 mins followed by substrate addition measured for 60 to 120 mins by HTRF assay relative to control; conditions: time 70-130 min
[11] = target: Cyclin-dependent kinase 2/cyclin E1 (Homo sapiens) (UniProt P24864+P24941); experiment: Inhibition of CDK2/Cyclin E1 (unknown origin) at 1 uM preincubated for 10 mins followed by substrate addition measured for 60 to 120 mins by HTRF assay relative to control; assay type: protein-complex assay; conditions: time 70-130 min
GES1 = experiment: Antiproliferative activity against human GES1 cells incubated for 48 hrs by CCK8 assay; assay type: functional
C1498 [12] = experiment: Downregulation of STAT5 S726 expression in mouse C1498 cells allografted in AML Balb/C mouse model administered orally daily for 15 days measured after 3 weeks by Western blot analysis; assay type: functional, cell-based; conditions: dose 40-80 mg/kg, route po, time 15.0 day
[13] = MRT in Sprague-Dawley rat at 10 mg/kg, po; assay type: ADME, organism-based; conditions: in vivo
[14] = AUC (0 to infinity) in Sprague-Dawley rat at 10 mg/kg, po; assay type: ADME, organism-based; parameters: dose 10 mg/kg, route po; conditions: in vivo
[15] = Tmax in Sprague-Dawley rat at 10 mg/kg, po; assay type: ADME, organism-based; conditions: in vivo
[16] = target: Muscle, skeletal receptor tyrosine-protein kinase (Homo sapiens) (UniProt O15146); experiment: Inhibition of MUSK (unknown origin) at 1 uM preincubated for 10 mins followed by substrate addition measured for 60 to 120 mins by HTRF assay relative to control; conditions: time 70-130 min
[17] = target: Cyclin-dependent kinase 8 (Homo sapiens, UniProt P49336); experiment: Inhibition of CDK8 (unknown origin) in presence of ATP by ADP-Glo assay
[18] = target: Mast/stem cell growth factor receptor Kit (Homo sapiens) (UniProt P10721); experiment: Inhibition of KIT (unknown origin) at 1 uM preincubated for 10 mins followed by substrate addition measured for 60 to 120 mins by HTRF assay relative to control; conditions: time 70-130 min
C1498 [19] = experiment: Downregulation of STAT1 S727 phosphorylation in mouse C1498 cells allografted in AML Balb/C mouse model at 40 to 80 mg/kg, po administered daily for 15 days measured after 3 weeks by IHC analysis; assay type: functional, organism-based; conditions: dose 40-80 mg/kg, time 15.0 day
[20] = target: Cytoplasmic tyrosine-protein kinase BMX (Homo sapiens) (UniProt P51813); experiment: Inhibition of BMX (unknown origin) at 1 uM preincubated for 10 mins followed by substrate addition measured for 60 to 120 mins by HTRF assay relative to control; conditions: time 70-130 min
[21] = Acute toxicity in C57BL/6 mouse assessed as histopathological change in liver at 2000 mg/kg, IG measured for 14 days by H&E staining based analysis; assay type: organism-based; conditions: in vivo, po, 336 h, time 14 day
[22] = Bioavailability in Sprague-Dawley rat at 10 mg/kg, po; assay type: ADME, organism-based; conditions: in vivo
C1498 [23] = experiment: Antitumor activity against mouse C1498 cells allografted in AML Balb/C mouse model assessed as decrease in Ki67 expression administered orally daily for 15 days measured after 3 weeks by IHC analysis; assay type: functional, cell-based; conditions: dose 40-80 mg/kg, route po, time 15.0 day
MDA-MB-231 = experiment: Antiproliferative activity against human MDA-MB-231 cells incubated for 48 hrs by CCK8 assay; assay type: functional
[24] = target: Proto-oncogene tyrosine-protein kinase Src (Homo sapiens) (UniProt P12931); experiment: Inhibition of SRC (unknown origin) at 1 uM preincubated for 10 mins followed by substrate addition measured for 60 to 120 mins by HTRF assay relative to control; conditions: time 70-130 min
HCT-116 = experiment: Downregulation of STAT1 S727 expression in IFNgamma-stimulated human HCT-116 cells incubated for 12 hrs followed by IFNgamma stimulation for 3 hrs by Western blot analysis; assay type: functional, cell-based; conditions: dose 1-10 µM
[25] = target: Insulin-like growth factor 1 receptor (Homo sapiens) (UniProt P08069); experiment: Inhibition of IGF1R (unknown origin) at 1 uM preincubated for 10 mins followed by substrate addition measured for 60 to 120 mins by HTRF assay relative to control; conditions: time 70-130 min
HL-60 [26] = experiment: Induction of apoptosis in human HL-60 cells assessed as late apoptotic cells at 1 uM incubated for 48 hrs by annexin V-FITC/PI staining based flow cytometry (reference value: 1.07 %); assay type: functional
HL-60 [27] = experiment: Antiproliferative activity against human HL-60 cells incubated for 48 hrs by CCK8 assay; assay type: functional
[28] = target: CDK2/Cyclin A2 (Homo sapiens) (UniProt P24941+P20248); experiment: Inhibition of CDK2/Cyclin A2 (unknown origin) at 1 uM preincubated for 10 mins followed by substrate addition measured for 60 to 120 mins by HTRF assay relative to control; assay type: protein-complex assay; conditions: time 70-130 min

Chain of Protein-tyrosine kinase 6 (Homo sapiens) (Q13882 whole entry, looked up): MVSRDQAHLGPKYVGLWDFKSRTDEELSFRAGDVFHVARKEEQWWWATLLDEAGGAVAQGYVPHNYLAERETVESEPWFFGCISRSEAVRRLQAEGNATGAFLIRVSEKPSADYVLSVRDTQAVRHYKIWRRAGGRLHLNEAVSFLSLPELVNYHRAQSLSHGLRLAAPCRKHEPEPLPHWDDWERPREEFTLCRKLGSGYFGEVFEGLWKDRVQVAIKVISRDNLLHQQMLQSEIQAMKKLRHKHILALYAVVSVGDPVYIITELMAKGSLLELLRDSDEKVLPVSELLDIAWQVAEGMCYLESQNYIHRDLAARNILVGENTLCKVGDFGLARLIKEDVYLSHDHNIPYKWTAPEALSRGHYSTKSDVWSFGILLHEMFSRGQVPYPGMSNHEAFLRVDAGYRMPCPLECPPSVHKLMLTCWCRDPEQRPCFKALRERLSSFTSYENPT
Chain of Muscle, skeletal receptor tyrosine-protein kinase (Homo sapiens) (O15146 whole entry): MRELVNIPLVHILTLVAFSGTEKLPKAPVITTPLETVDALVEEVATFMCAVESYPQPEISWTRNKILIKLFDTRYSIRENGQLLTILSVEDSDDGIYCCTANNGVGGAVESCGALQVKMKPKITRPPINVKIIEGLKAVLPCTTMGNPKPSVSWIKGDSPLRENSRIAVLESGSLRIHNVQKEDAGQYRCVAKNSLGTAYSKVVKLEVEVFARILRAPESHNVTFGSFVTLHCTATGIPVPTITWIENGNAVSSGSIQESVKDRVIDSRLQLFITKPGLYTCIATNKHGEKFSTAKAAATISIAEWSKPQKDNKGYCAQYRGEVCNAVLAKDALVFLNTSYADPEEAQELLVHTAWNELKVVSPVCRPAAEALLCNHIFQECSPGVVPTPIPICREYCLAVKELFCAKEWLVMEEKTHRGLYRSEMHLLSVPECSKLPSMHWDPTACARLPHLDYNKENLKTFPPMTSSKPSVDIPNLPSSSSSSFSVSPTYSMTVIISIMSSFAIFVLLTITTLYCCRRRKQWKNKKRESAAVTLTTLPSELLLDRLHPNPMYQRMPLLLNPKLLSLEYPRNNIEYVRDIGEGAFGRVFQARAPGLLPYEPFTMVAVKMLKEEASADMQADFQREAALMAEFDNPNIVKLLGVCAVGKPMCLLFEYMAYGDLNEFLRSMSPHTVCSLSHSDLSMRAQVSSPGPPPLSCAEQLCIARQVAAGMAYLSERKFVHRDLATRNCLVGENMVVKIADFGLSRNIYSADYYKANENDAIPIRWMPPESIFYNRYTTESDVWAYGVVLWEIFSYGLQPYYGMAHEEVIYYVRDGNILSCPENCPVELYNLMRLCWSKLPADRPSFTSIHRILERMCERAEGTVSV
Chain of Receptor tyrosine-protein kinase erbB-2 (Homo sapiens) (P04626 whole entry): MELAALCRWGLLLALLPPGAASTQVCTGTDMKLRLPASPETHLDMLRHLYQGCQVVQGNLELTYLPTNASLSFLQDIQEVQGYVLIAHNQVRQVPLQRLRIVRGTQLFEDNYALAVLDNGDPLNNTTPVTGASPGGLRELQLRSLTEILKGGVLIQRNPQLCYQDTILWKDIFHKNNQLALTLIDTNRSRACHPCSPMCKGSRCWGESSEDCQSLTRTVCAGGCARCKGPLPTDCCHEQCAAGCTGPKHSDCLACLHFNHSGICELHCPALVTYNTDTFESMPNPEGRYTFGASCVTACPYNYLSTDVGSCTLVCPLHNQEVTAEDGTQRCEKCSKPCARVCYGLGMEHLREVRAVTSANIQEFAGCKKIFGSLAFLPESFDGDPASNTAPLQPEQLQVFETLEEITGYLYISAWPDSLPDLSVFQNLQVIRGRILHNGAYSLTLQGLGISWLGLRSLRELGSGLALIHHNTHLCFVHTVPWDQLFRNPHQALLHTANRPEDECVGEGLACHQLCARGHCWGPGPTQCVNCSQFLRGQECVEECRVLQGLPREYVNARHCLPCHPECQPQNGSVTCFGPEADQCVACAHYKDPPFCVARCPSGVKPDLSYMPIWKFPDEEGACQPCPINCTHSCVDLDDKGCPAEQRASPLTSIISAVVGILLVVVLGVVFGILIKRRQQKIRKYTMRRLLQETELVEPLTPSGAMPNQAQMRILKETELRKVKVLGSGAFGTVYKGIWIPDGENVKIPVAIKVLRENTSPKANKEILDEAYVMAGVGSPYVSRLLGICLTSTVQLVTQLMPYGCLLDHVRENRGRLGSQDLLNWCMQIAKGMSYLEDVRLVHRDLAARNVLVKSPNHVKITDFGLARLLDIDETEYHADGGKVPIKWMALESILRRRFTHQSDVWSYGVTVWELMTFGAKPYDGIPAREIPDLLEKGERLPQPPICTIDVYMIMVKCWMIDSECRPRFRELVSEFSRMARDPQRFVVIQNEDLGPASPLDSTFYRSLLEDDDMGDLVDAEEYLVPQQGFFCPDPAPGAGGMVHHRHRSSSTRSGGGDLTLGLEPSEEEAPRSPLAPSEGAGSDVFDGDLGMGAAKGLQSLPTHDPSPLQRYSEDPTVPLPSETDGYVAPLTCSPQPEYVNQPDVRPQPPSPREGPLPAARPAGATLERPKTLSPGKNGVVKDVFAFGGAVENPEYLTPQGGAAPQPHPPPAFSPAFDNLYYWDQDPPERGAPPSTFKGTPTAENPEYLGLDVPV
Chain of Ephrin type-B receptor 2 (Homo sapiens) (P29323 whole entry): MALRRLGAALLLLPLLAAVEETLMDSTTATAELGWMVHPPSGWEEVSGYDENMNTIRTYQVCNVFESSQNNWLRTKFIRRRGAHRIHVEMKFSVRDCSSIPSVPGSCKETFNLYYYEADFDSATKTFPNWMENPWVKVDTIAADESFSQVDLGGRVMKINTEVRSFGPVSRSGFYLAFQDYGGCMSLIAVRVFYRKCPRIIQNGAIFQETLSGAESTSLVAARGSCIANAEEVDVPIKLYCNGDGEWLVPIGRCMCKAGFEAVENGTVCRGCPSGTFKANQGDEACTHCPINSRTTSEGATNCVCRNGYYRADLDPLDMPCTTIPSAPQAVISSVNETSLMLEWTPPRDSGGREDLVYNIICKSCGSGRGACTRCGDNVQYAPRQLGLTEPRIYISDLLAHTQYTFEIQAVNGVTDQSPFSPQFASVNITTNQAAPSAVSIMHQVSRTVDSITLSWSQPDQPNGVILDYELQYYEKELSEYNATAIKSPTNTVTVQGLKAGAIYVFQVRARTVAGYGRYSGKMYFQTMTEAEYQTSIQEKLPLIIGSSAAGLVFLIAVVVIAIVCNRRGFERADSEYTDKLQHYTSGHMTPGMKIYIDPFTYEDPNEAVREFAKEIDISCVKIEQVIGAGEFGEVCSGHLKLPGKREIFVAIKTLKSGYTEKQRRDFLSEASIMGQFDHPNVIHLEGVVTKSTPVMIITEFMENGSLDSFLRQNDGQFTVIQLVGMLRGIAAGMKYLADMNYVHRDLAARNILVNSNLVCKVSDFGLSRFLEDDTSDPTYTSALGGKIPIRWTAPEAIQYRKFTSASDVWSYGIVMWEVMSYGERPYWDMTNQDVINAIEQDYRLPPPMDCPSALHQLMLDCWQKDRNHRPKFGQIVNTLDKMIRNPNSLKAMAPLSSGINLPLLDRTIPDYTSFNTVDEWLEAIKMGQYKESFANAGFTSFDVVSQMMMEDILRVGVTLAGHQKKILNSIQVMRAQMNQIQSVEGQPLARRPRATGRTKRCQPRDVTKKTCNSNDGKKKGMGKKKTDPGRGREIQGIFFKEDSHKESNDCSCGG
Chain of CDK7/Cyclin H/MNAT1 (P51946 whole entry): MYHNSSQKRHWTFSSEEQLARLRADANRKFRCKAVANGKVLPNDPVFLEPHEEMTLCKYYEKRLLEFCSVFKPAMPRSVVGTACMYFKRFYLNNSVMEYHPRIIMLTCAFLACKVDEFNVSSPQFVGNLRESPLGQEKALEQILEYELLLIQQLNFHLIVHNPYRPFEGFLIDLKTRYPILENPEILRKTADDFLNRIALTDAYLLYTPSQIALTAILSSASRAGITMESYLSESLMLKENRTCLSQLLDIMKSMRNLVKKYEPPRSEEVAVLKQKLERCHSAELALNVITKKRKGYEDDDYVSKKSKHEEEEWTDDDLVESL
Chain of CDK7/Cyclin H/MNAT1 (P50613 whole entry): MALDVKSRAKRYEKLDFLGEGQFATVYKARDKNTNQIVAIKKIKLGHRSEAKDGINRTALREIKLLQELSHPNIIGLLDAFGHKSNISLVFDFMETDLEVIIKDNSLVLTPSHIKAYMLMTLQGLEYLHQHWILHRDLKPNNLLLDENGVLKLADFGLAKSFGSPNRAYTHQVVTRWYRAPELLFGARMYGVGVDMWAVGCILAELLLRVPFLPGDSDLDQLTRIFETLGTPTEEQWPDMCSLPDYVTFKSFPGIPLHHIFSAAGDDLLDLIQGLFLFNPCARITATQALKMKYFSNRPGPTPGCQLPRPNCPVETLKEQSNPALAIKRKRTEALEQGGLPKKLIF
Chain of CDK7/Cyclin H/MNAT1 (P51948 whole entry, further chain): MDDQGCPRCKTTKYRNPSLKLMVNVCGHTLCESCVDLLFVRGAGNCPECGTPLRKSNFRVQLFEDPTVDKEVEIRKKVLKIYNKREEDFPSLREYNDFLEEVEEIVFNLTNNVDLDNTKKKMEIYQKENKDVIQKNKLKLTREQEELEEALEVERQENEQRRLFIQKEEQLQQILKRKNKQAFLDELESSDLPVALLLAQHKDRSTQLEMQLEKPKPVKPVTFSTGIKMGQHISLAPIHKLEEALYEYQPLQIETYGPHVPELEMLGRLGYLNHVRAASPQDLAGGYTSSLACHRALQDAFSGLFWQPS

NC(=O)c1cccc(-c2cnc3[nH]ccc3c2)c1
pIC50 (CDK7/Cyclin H/MNAT1): 6.37
Activity (HL-60 [1]): 8.48%
inhibition [2]: 23.9%
inhibition [3]: 0%
inhibition [4]: 3.32%
inhibition [5]: 5.27%
inhibition [6]: 12.7%
inhibition [7]: 0%
inhibition [8]: 0%
inhibition [9]: 0%
inhibition [10]: 0%
inhibition [11]: 9.01%
GI50 (GES1): > 100 µM
Activity (C1498 [12]): Dose-Dependent Effect
MRT [13]: 2.47 h
AUC(0-inf) [14]: 434 ng·h/mL
Tmax [15]: 1 h
inhibition [16]: 3.63%
pIC50 [17]: 7.28
inhibition [18]: 0%
Activity (C1498 [19]): Active
inhibition [20]: 5.13%
Activity [21]: Non-Toxic
bioavailability [22]: 28%
Activity (C1498 [23]): Dose-Dependent Effect
GI50 (MDA-MB-231): > 50 µM
inhibition [24]: 0%
Activity (HCT-116): Dose-Dependent Effect
inhibition [25]: 7.77%
Activity (HL-60 [26]): 38%
GI50 (HL-60 [27]): 1 µM
inhibition [28]: 3.99%

Source: ChEMBL document CHEMBL5346907, “Discovery of a novel oral type Ⅰ CDK8 inhibitor against acute myeloid leukemia” (Eur J Med Chem, 2023)
